Measured values: US20090076044A1, “VEGFR INHIBITORS CONTAINING A ZINC BINDING MOIETY” (priority 2007, published 2009)

Key:
[1] = system: HDAC; test: HDAC fluorimetric assay kit (HeLa nuclear extract); format: biochemical
Method: (b) An In Vitro Assay which Determines the Ability of a Test Compound to Inhibit HDAC Enzymatic Activity.
HDAC inhibitors were screened using an HDAC fluorimetric assay kit (AK-500, Biomol, Plymouth Meeting, Pa.). Test compounds were dissolved in dimethylsulphoxide (DMSO) to give a 20 mM working stock concentration. Fluorescence was measured on a WALLAC Victor 2 plate reader and reported as relative fluorescence units (RFU). Data were plotted using GraphPad Prism (v4.0a) and IC50's calculated using a sigmoidal dose response curve fitting algorithm. Each assay was setup as follows: Defrosted all kit components and kept on ice until use. Diluted HeLa nuclear extract 1:29 in Assay Buffer (50 mM Tris/Cl, pH 8.0, 137 mM NaCl, 2.7 mM KCl, 1 mM MgCl2). Prepared dilutions of Trichostatin A (TSA, positive control) and tested compounds in assay buffer (5× of final concentration). Diluted Fluor de Lys™ Substrate in assay buffer to 100 uM (50 fold=2× final). Diluted Fluor de Lys™ developer concentrate 20-fold (e.g. 50 μl plus 950 μl Assay Buffer) in cold assay buffer. Second, diluted the 0.2 mM Trichostatin A 100-fold in the 1× Developer (e.g. 10 μl in 1 ml; final Trichostatin A concentration in the 1× Developer=2 μM; final concentration after addition to HDAC/Substrate reaction=1 μM). Added Assay buffer, diluted trichostatin A or test inhibitor to appropriate wells of the microtiter plate. Added diluted HeLa extract or other HDAC sample to all wells except for negative controls. Allowed diluted Fluor de Lys™ Substrate and the samples in the microtiter plate to equilibrate to assay temperature (e.g. 25 or 37° C. Initiated HDAC reactions by adding diluted substrate (25 μl) to each well and mixing thoroughly. Allowed HDAC reactions to proceed for 1 hour and then stopped them by addition of Fluor de Lys™ Developer (50 μl). Incubated plate at room temperature (25° C.) for 10-15 min. Read samples in a microtiter-plate reading fluorimeter capable of excitation at a wavelength in the range 350-380 nm and detection of emitted light in the range 440-460 nm.

[2] = molecular target: T1, human EGFR (Homo sapiens, UniProt P00533); test: EGFR kinase assay (HTScan EGF Receptor Kinase Assay Kit, DELFIA); format: biochemical; conditions: 200 μM ATP
T1 construct: human EGFR (His672-Ala1210); purchased Cell Signaling Technologies; host or cells: baculovirus expression system
Method: (e) An In Vitro Assay which Determines the Ability of a Test Compound to Inhibit EGFR Kinase.
The ability of compounds to inhibit receptor kinase (EGFR) activity was assayed using HTScan™ EGF Receptor Kinase Assay Kits (Cell Signaling Technologies, Danvers, Mass.). EGFR tyrosine kinase was obtained as GST-kinase fusion protein which was produced using a baculovirus expression system with a construct expressing human EGFR (His672-Ala1210) (GenBank Accession No. NM_005228) with an amino-terminal GST tag. The protein was purified by one-step affinity chromatography using glutathione-agarose. An anti-phosphotyrosine monoclonal antibody, P-Tyr-100, was used to detect phosphorylation of biotinylated substrate peptides (EGFR), Biotin-PTP1B (Tyr66). Enzymatic activity was tested in 60 mM HEPES, 5 mM MgCl2 5 mM MnCl2 200 μM ATP, 1.25 mM DTT, 3 μM Na3VO4, 1.5 mM peptide, and 50 ng EGF Receptor Kinase. Bound antibody was detected using the DELFIA system (PerkinElmer, Wellesley, Mass.) consisting of DELFIA® Europium-labeled Anti-mouse IgG (PerkinElmer, #AD0124), DELFIA® Enhancement Solution (PerkinElmer, #1244-105), and a DELFIA® Streptavidin coated, 96-well Plate (PerkinElmer, AAAND-0005). Fluorescence was measured on a WALLAC Victor 2 plate reader and reported as relative fluorescence units (RFU). Data were plotted using GraphPad Prism (v4.0a) and IC50's calculated using a sigmoidal dose response curve fitting algorithm.
Test compounds were dissolved in dimethylsulfoxide (DMSO) to give a 20 mM working stock concentration. Each assay was setup as follows: Added 100 μl of 10 mM ATP to 1.25 ml 6 mM substrate peptide. Diluted the mixture with dH2O to 2.5 ml to make 2×ATP/substrate cocktail ([ATP]=[…], [substrate]=3 mM). Immediately transfer enzyme from −80° C. to ice. Allowed enzyme to thaw on ice. Microcentrifuged briefly at 4° C. to bring liquid to the bottom of the vial. Returned immediately to ice. Added 10 μl of DTT (1.25 mM) to 2.5 ml of 4× HTScan™ Tyrosine Kinase Buffer (240 mM HEPES pH 7.5, 20 mM MgCl2, 20 mM MnCl, 12 mM NaVO3) to make DTT/Kinase buffer. Transfer 1.25 ml of DTT/Kinase buffer to enzyme tube to make 4× reaction cocktail ([enzyme]=4 ng/μL in 4× reaction cocktail). Incubated 12.5 μl of the 4× reaction cocktail with 12.5 μl/well of prediluted compound of interest (usually around 10 μM) for 5 minutes at room temperature. Added 25 μl of 2×ATP/substrate cocktail to 25 μl/well preincubated reaction cocktail/compound. Incubated reaction plate at room temperature for 30 minutes. Added 50 μl/well Stop Buffer (50 mM EDTA, pH 8) to stop the reaction. Transferred 25 μl of each reaction and 75 μl dH2O/well to a 96-well streptavidin-coated plate and incubated at room temperature for 60 minutes. Washed three times with 200 μl/well PBS/T (PBS, 0.05% Tween-20). Diluted primary antibody, Phospho-Tyrosine mAb (P-Tyr-100), 1:1000 in PBS/T with 1% bovine serum albumin (BSA). Added 100 μl/well primary antibody. Incubated at room temperature for 60 minutes. Washed three times with 200 μl/well PBS/T. Diluted Europium labeled anti-mouse IgG 1:500 in PBS/T with 1% BSA. Added 100 μl/well diluted antibody. Incubated at room temperature for 30 minutes. Washed five times with 200 μl/well PBS/T. Added 100 μl/well DELFIA® Enhancement Solution. Incubated at room temperature for 5 minutes. Detected 615 nm fluorescence emission with appropriate Time-Resolved Plate Reader.

T1 sequence (P00533 672-1210): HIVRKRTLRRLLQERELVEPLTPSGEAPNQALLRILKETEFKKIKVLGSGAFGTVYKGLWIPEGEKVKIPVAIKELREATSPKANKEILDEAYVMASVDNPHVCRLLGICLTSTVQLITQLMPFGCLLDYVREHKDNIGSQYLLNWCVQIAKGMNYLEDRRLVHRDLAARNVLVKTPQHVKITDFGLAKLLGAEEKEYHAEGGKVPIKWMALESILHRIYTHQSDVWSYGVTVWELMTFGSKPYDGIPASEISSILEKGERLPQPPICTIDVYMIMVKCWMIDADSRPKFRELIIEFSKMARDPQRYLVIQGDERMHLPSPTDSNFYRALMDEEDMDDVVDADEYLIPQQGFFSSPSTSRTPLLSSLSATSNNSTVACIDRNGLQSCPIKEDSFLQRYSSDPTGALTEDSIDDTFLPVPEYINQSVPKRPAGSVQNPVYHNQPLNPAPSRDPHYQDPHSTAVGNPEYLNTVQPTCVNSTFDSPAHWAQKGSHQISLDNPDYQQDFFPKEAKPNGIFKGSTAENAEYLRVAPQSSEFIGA

IC50 [1] [nM] | IC50 [2] [nM] | SMILES
< 100 | < 100 | COc1cc2ncnc(Nc3ccc4occc4c3)c2cc1OCCCCCCC(=O)NO [Compound 2, 7-(4-(benzofuran-5-ylamino)-7-methoxyquinazolin-6-yloxy)-N-hydroxyheptanamide]
100 to 1000 | 100 to 1000 | COc1cc2c(Oc3ccc4[nH]c(C)cc4c3F)ncnc2cc1OCCCCCC(=O)NO [Compound 10, 6-(4-(4-fluoro-2-methyl-1H-indol-5-yloxy)-6-methoxyquinazolin-7-yloxy)-N-hydroxyhexanamide]
100 to 1000 | 1000 to 10000 | COc1cc2c(Oc3ccc4[nH]c(C)cc4c3F)ncnc2cc1OCCCCCCC(=O)NO [Compound 11, 7-(4-(4-fluoro-2-methyl-1H-indol-5-yloxy)-6-methoxyquinazolin-7-yloxy)-N-hydroxyheptanamide]
< 100 | 100 to 1000 | COc1cc2c(Nc3ccc4[nH]c(C)cc4c3F)ncnc2cc1OCCCCCC(=O)NO [Compound 13, 6-(4-(4-fluoro-2-methyl-1H-indol-5-ylamino)-6-methoxyquinazolin-7-yloxy)-N-hydroxyhexanamide]
< 100 | < 100 | COc1cc2c(Nc3ccc4[nH]c(C)cc4c3F)ncnc2cc1OCCCCCCC(=O)NO [Compound 14, 7-(4-(4-fluoro-2-methyl-1H-indol-5-ylamino)-6-methoxy-quinazolin-7-yloxy)-N-hydroxyheptanamide]
100 to 1000 | 1000 to 10000 | Cc1cc2c(F)c(Oc3ncnc4cc(OCCCN5CCCC5)c(OCCCCCC(=O)NO)cc34)ccc2[nH]1 [Compound 16, 6-(4-(4-fluoro-2-methyl-1H-indol-5-yloxy)-7-(3-(pyrrolidin-1-yl)propoxy)quinazolin-6-yloxy)-N-hydroxyhexanamide]
< 100 | 1000 to 10000 | Cc1cc2c(F)c(Oc3ncnc4cc(OCCCN5CCCC5)c(OCCCCCCC(=O)NO)cc34)ccc2[nH]1 [Compound 17]
100 to 1000 | 100 to 1000 | Cc1cc2c(F)c(Nc3ncnc4cc(OCCCN5CCCC5)c(OCCCCC(=O)NO)cc34)ccc2[nH]1 [Compound 18, 5-(4-(4-fluoro-2-methyl-1H-indol-5-ylamino)-7-(3-(pyrrolidin-1-yl)propoxy)quinazolin-6-yloxy)-N-hydroxypentanamide]
100 to 1000 | < 100 | Cc1cc2c(F)c(Nc3ncnc4cc(OCCCN5CCCC5)c(OCCCCCC(=O)NO)cc34)ccc2[nH]1 [Compound 19, 6-(4-(4-Fluoro-2-methyl-1H-indol-5-ylamino)-7-(3-(pyrrolidin-1-yl)propoxy)quinazolin-6-yloxy)-N-hydroxyhexanamide]
– | 1000 to 10000 | Cc1cc2c(F)c(Nc3ncnc4cc(OCCCN5CCCC5)c(OCCCCCCC(=O)NO)cc34)ccc2[nH]1 [Compound 20, 7-(4-(4-Fluoro-2-methyl-1H-indol-5-ylamino)-7-(3-(pyrrolidin-1-yl)propoxy)quinazolin-6-yloxy)-N-hydroxyheptanamide]
